Experimental data taken from patent US6436344B1, “Method of inactivating pathogens” (American National Red Cross, priority 1999, dated 2002).
“And” between values parts separate entries of the source, which are not always exact repeats. Equal values may be shown once. Read-outs that look alike come from different tables or passages of the source.

What was measured:
porcine parvovirus (PPV) [1] = test: Porcine parvovirus inactivation by CAA, TCID50 titration on PK-13 cells (Example 3); format: cell-based, PPV strain NADL-2
Protocol: An aqueous solution of chloroacetaldehyde (Aldrich Chemical, Milwaukee, Wis., Product 31,727-6, Lot KS02106MR, 50% in water) was diluted to the desired mM concentrations (0.5, 1, 2 and 5 mM) in 0.05 M sodium acetate buffer, pH 5.5. The 2 mM and 5 mM CAA samples were also prepared in 2.5% IgG solution, buffered at pH 5.5 with sodium acetate. Positive hold controls contained 0.05 M sodium acetate buffer, pH 5.5, or acetate-buffered 2.5% IgG without CAA. Positive controls and test samples were spiked 1:40 with porcine parvovirus (ATCC VR-742, PPV strain NADL-2). Aliquots were removed for immediate viral assay and the remaining samples were incubated at 37° C. for 4, 7 and 22.5 hours and then assayed to determine viral titers.
(§1) Viral assays were performed by the TCID50 method as described by Miekka et al, HEMOPHILIA 4, 401-408 (1998). Target porcine kidney cells, PK-13 (ATCC CRC-6490), were seeded into 96-well microtiter plates and grown to 50-70% confluence. Five-fold serial dilutions (200 μL) of samples were prepared in cell culture medium and added to four wells each. Plates were incubated for 7 days at 37° C. in humidified 5% carbon dioxide. Cell layers were analyzed for cytopathic effect, and log10 viral titers were calculated by the method of Kärber, ARCH. Exp. PATHOL. PHARMAKOL., 162, 480-483 (1931). The average PPV reduction rate (log10/hour) was computed by regression analysis of the viral titers at each of the time points tested. Viral titers that had decreased to the assay limit were excluded from this calculation.

pseudorabies virus (PRV) = format: cell-based; details: for Pseudorabies Virus Av. rate / Pseudorabies Virus Reduction Factor: pH 5.5, 4 hours at 37° C.
[2] = molecular target: T1, human coagulation Factor VIII (Homo sapiens, UniProt P00451); test: Preservation of Factor VIII clotting activity, one-stage APTT (Example 5); format: biochemical; details: for FVIII u/mL after 37° C. incubation, 3 hours: 3 hours at 37° C.
T1 construct: The CFVIII product tested was ‘Antihemophilic Factor, Human, Method M, Solvent and Detergent Treated’ (American Red Cross); tissue American Red Cross; host or cells: human plasma (own knowledge: Method M is a plasma-derived, monoclonal-antibody-purified concentrate)
T1 sequence (P00451 20-1667 limits assumed): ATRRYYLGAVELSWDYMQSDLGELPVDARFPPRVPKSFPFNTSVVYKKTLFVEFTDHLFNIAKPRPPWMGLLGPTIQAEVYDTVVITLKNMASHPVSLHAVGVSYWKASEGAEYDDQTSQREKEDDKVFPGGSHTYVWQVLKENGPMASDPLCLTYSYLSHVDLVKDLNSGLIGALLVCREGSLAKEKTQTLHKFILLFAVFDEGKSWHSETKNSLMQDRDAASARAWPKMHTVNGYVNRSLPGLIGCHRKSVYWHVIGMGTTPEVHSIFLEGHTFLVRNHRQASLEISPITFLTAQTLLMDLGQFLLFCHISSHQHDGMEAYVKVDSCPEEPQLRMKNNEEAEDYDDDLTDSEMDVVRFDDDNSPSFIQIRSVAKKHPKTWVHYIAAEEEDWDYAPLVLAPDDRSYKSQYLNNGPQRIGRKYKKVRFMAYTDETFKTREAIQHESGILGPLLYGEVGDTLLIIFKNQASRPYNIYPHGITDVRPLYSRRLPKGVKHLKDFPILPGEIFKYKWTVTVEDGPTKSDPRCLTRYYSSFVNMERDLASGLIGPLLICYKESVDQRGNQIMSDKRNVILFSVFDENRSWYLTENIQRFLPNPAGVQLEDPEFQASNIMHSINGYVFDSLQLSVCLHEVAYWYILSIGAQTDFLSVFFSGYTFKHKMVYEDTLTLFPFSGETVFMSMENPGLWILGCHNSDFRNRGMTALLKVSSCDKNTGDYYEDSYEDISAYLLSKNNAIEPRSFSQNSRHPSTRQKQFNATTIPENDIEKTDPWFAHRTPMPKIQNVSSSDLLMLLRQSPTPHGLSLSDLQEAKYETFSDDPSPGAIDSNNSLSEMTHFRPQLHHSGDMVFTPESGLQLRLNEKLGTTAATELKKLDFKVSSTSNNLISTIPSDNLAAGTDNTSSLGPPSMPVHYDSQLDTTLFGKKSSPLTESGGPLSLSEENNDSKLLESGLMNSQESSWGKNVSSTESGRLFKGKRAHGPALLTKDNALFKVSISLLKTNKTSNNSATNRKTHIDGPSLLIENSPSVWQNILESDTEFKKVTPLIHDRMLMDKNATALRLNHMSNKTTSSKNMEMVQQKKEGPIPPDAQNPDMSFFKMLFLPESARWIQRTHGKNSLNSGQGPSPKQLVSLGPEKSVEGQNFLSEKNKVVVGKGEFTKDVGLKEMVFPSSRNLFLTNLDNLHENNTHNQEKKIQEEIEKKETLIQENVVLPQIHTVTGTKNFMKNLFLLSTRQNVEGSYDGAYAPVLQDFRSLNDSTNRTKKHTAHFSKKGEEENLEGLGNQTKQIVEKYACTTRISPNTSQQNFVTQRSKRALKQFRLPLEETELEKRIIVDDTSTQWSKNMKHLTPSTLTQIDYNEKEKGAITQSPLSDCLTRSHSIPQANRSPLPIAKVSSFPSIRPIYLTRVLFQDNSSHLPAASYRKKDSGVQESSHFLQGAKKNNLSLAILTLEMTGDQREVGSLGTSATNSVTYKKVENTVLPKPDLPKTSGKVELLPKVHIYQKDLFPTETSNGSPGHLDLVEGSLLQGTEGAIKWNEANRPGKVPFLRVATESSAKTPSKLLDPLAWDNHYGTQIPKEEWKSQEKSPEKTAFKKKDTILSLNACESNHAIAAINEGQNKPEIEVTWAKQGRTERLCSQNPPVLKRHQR
T1 sequence (P00451 1668-2351 limits assumed): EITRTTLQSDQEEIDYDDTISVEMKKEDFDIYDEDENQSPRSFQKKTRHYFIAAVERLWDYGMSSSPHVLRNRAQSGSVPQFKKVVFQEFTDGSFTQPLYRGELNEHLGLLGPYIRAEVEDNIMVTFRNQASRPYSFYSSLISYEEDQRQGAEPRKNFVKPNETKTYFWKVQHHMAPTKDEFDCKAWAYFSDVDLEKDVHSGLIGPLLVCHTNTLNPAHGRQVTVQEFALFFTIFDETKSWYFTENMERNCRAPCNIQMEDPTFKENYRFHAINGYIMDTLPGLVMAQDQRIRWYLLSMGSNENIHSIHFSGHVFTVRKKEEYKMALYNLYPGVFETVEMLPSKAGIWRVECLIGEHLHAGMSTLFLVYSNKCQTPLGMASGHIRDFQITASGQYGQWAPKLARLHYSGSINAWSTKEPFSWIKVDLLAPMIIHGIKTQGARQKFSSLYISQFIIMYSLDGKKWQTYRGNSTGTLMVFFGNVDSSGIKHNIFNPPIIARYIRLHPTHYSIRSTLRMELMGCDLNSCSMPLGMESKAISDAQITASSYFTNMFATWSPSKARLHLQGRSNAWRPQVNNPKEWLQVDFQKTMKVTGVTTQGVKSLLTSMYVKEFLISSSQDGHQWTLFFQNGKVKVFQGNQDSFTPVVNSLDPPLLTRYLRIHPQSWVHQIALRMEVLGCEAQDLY

porcine parvovirus (PPV) [3] = test: Inactivation of PPV by CAA in the presence of Factor VIII (Example 6); format: cell-based
Protocol: as §1
A stock solution of 100 mM CAA in water was neutralized to pH 7.0 and was added to CFVIII to give final CAA concentrations of 3 mM and 6 mM and final CFVIII concentration of 100 clotting units/mL. All samples were buffered at pH 5.5 with 0.02 M sodium acetate. PPV was spiked into the samples at 1:40 ratio. The samples were incubated for 4 hours at 37° C. The positive hold controls were acetate buffer or Factor VIII, spiked with PPV and incubated 4 hours at 37° C. Viral assays and cell culture techniques were performed as described in EXAMPLE 3. Viral reduction factors were calculated as the difference between the log10 titers of the non-incubated and 4-hour incubated samples.

[4] = molecular target: T2, human coagulation Factor IX (Homo sapiens, UniProt P00740); test: Preservation of Factor IX clotting activity, one-stage APTT (Example 7); format: biochemical; details: 0.01 M calcium chloride, pH 6.2
T2 construct: highly-purified human coagulation Factor IX, a labile plasma clotting factor; from tissue
T2 sequence (P00740 47-461): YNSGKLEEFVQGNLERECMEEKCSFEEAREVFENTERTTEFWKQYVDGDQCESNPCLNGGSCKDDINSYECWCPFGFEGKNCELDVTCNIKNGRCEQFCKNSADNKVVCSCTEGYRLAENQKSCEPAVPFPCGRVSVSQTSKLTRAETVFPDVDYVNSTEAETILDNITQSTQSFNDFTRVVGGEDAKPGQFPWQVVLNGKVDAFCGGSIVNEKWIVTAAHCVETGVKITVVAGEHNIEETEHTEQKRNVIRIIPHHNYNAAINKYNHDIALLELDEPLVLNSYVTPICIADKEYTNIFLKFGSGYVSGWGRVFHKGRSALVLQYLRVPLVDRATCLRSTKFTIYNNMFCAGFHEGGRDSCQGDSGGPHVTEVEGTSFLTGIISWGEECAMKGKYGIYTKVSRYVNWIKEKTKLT

[5] = molecular target: T2, human coagulation Factor IX; details: treatment with molecular iodine; cited from earlier work
[6] = Effect of pH 12, heat and thiosulfate on iodoacetaldehyde, GC-MS and NMR (Example 8); format: physicochemical
[7] = Relative amount of IAA and its hydrated form in water by NMR (Example 1C); format: physicochemical; details: water solution, NMR estimate, 40° C.
Protocol: One-dimensional ^1H-NMR spectra were recorded on a Bruker DRX 500 spectrometer at 40° C. The signal for TSP was used as internal reference (δH=0.0 ppm). A sample was prepared by adding 50 μl of the solution purified by reverse phase chromatography (RPC) to 650 μl D2O and subsequently transferring the diluted sample to a 5 mm NMR tube. For the quantitative measurement, a solution of Sodium Trimethyl Silyl Propionic acid (TSP, 0.991 mg/ml) was prepared; and 10 μl of that solution was added to the sample. By comparing the integral of the methyl groups in TSP with the integral of the CH2-group in hydrated IAA, an estimate of the IAA concentration in the sample could be made. Iodoacetaldehyde is in equilibrium with its hydrated form in a water solution. An estimate based on NMR is that the hydrated form accounts for approximately 90% of the sample, and the aldehyde form approximately 10%. This equilibrium should be taken into account when calculating concentration of IAA in aqueous media.

porcine parvovirus (PPV) [8] = test: Porcine parvovirus inactivation by IAA, TCID50 titration on PK 15 cells (Example 2); format: cell-based, strain PPV 893/76; details: for PPV Reduction Factor: 4 hours
Protocol: RPC-purified IAA was diluted to the desired μM concentrations in water or in 5% IgG solution (>98% pure, KABI, Stockholm, Sweden), and the pH was adjusted to 5.00 with 0.4 M sodium phosphate. […] The samples were then gel filtered through sterile PD 10 columns containing Sephadex G-25 (Amersham Pharmacia Biotech Uppsala, Sweden) equilibrated with 25 ml of cell culture medium. A sample (2 ml) was layered onto the column and the fall-through was discarded. Then 3.2 ml cell culture medium (3.2 ml) was added to the column and the first 0.5 mL of eluate was discarded. The remaining eluate was collected for viral assay. The resulting diluting factor was 1.48. Materials for viral assays were as follows. […] The cell supernatant was clarified by low speed centrifugation and filtered through 0.45 μm and 0.2 μm filters before storing at -70° C. in aliquots. The target cells for titration of PPV were porcine kidney cell line PK 15 (ATCC CCL-33). The cells were cultivated according to conventional cell culture procedures in EMEM with non-essential amino acids (SVA, Uppsala, Sweden), supplemented with 120 μg/ml of penicillin G, 100 μg/ml of streptomycin sulfate and 5% fetal calf serum. Cells were seeded in 96 well microtiter plates (Nunc). Viral assays were performed by a TCID50 method. The original virus stock (positive control sample) and the test samples were serially diluted ten-fold in cell culture medium shortly after sampling. Aliquots (50 μl) of each dilution were added to eight wells of the 96-well microtiter plates. […] After incubation for 7 days at 37° C. in a humidified atmosphere of 5% CO2, the cells were rinsed in physiological saline and fixed in 80% acetone for 30 minutes at -20° C., after which the fixation fluid was removed and the plates were dried at 37° C. Virus infected cells were visualized by an immunoperoxidase method (Jensen […]. 22 (1981) 85-98; […]., RECENT ADVANCES IN VIRUS DIAGNOSTICS, McNutly and […]. (1984) 37-46; Saunders G. C., Am. J. VET. RES. 38 (1977) 21-25). […] The cells were then washed twice for five minutes with wash fluid and once with physiological saline. Peroxidase-conjugated rabbit anti-mouse IgG P 2060 (Dakopatts, Denmark) was added to the cells. […] Wells with viral foci were counted using an inverted microscope and the tissue culture infectious dose giving a 50% end point (TCID50) was calculated for each sample. […] 10^R=(V'×10^a')/(V''×10^a'')

[9] = 5 mM CAA, incubation for 4 hours
[10] = CAA 3 mM, Factor VIII (AHF-M) 100 clotting units/mL, pH 5.5, 4 hours at 37° C.
[11] = CAA 3 mM, buffer pH 5.5, 4 hours at 37° C.
[12] = CAA 6 mM, Factor VIII (AHF-M) 100 clotting units/mL, pH 5.5, 4 hours at 37° C.
[13] = CAA 6 mM, buffer pH 5.5, 4 hours at 37° C.
[14] = CAA 3 and 6 mM, with and without Factor VIII, 4 hours

SMILES: O=CCCl [CAA, Chloroacetaldehyde]
- PPV inactivation rate (porcine parvovirus (PPV) [1]; 2 mM CAA): ~0.6 log10/hour
- porcine parvovirus inactivated (porcine parvovirus (PPV) [1]; [9]): 3.2 -4 log10
- porcine parvovirus inactivated (porcine parvovirus (PPV) [1]; 4-hour treatment with 5 mM CAA): ≥ 3.6 logs
- Average PPV Reduction (porcine parvovirus (PPV) [1]; CAA 0.5 mM (total), buffer, pH 5.40, 37° C.): 0.16 Log10/hour
- Average PPV Reduction (porcine parvovirus (PPV) [1]; CAA 1 mM (total), buffer, pH 5.40, 37° C.): 0.26 Log10/hour
- Average PPV Reduction (porcine parvovirus (PPV) [1]; CAA 2 mM (total), 2.5% IgG, pH 5.36, 37° C.): 0.61 Log10/hour
- Average PPV Reduction (porcine parvovirus (PPV) [1]; CAA 2 mM (total), buffer, pH 5.50, 37° C.): 0.48 Log10/hour
- Average PPV Reduction (porcine parvovirus (PPV) [1]; CAA 5 mM (total), 2.5% IgG, pH 5.50, 37° C.): ≧0.79 Log10/hour
- concentration effective at inactivating pathogens (as low as) (porcine parvovirus (PPV) [1]; aqueous solutions of chloroacetaldehyde): about 1.0 mM
- Pseudorabies Virus Av. rate (pseudorabies virus (PRV); 2 mM): 0.66 log10/hour
- Pseudorabies Virus Reduction Factor (pseudorabies virus (PRV); 2 mM): 2.10 log10/4 hours
- pseudorabies virus inactivated (pseudorabies virus (PRV); [9]): ≥ 3.2 log10
- Pseudorabies Virus Av. rate (pseudorabies virus (PRV); 5 mM): ≧0.79 log10/hour
- Pseudorabies Virus Reduction Factor (pseudorabies virus (PRV); 5 mM): ≧3.15 log10/4 hours
- FVIII u/mL after 37° C. incubation, 0 hour ([2]; CAA 4.2 mM): 121 u/mL and 95 u/mL
- FVIII u/mL after 37° C. incubation, 0 hour ([2]; CAA 8.5 mM): 88 u/mL and 109 u/mL
- FVIII u/mL after 37° C. incubation, 3 hours ([2]; CAA 8.5 mM): 105 u/mL and 117 u/mL
- FVIII u/mL after 37° C. incubation, 0 hour ([2]; CAA 12.7 mM): 89 u/mL and 106 u/mL
- FVIII u/mL after 37° C. incubation, 3 hours ([2]; CAA 12.7 mM): 91 u/mL and 108 u/mL
- PPV Average rate (porcine parvovirus (PPV) [3]; [10]): ≧0.61 Log10/hour
- PPV Reduction Factor (porcine parvovirus (PPV) [3]; [10]): ≧2.44 Log10/4 hours
- PPV Average rate (porcine parvovirus (PPV) [3]; [11]): ≧0.57 Log10/hour
- PPV Reduction Factor (porcine parvovirus (PPV) [3]; [11]): ≧2.27 Log10/4 hours
- PPV Average rate (porcine parvovirus (PPV) [3]; [12]): ≧0.52 Log10/hour
- PPV Reduction Factor (porcine parvovirus (PPV) [3]; [12]): ≧2.09 Log10/4 hours
- PPV Average rate (porcine parvovirus (PPV) [3]; [13]): ≧0.43 Log10/hour
- PPV Reduction Factor (porcine parvovirus (PPV) [3]; [13]): ≧1.75 Log10/4 hours
- PPV reduction factors (limited by assay sensitivity) (porcine parvovirus (PPV) [3]; [14]): ≥ 2 log10/4 hours
- PPV reduction rate (limited by assay sensitivity) (porcine parvovirus (PPV) [3]; [14]): ≥ 0.5 log10/hour
- % of initial clotting activity remaining after 37° C. incubation ([4]; CFIX-M + 1 mM CAA, 0 hour): 95.2%
- % of initial clotting activity remaining after 37° C. incubation ([4]; CFIX-M + 1 mM CAA, 4 hour): 93.9%
- % of initial clotting activity remaining after 37° C. incubation ([4]; CFIX-M + 1 mM CAA, 20 hour): 100.3%
- % of initial clotting activity remaining after 37° C. incubation ([4]; CFIX-M + 5 mM CAA, 0 hour): 97.7%
- % of initial clotting activity remaining after 37° C. incubation ([4]; CFIX-M + 5 mM CAA, 4 hour): 100.6%
- % of initial clotting activity remaining after 37° C. incubation ([4]; CFIX-M + 5 mM CAA, 20 hour): 89.1%

SMILES: II [molecular iodine]
- effect on Factor IX [5]: completely inactivate

SMILES: O=CCI [IAA, Iodoacetaldehyde]
- Effect on Iodoacetaldehyde, Change ([6]; 80° C. (20 hours)): Degraded
- Effect on Iodoacetaldehyde, Change ([6]; Sodium thiosulfate, 2-20 mM): Degraded
- Effect on Iodoacetaldehyde, Change ([6]; pH 12 (0.5 hour)): Degraded
- aldehyde form, share of the sample [7]: approximately 10%
- hydrated form, share of the sample [7]: approximately 90%
- potency relative to CAA (PPV inactivation) (porcine parvovirus (PPV) [8]; 180 μM IAA v. 2 mM CAA at the same rate): over 10 times
- PPV Reduction Factor (porcine parvovirus (PPV) [8]; IAA 36 μM (hydrated form), 5% IgG, pH 4.64, 37° C.): ≦0.7 Log10/4 hours
- PPV Reduction Factor (porcine parvovirus (PPV) [8]; IAA 36 μM (hydrated form), buffer, pH 4.96, 37° C.): 0.8 Log10/4 hours
- PPV Reduction Factor (porcine parvovirus (PPV) [8]; IAA 45 μM (hydrated form), 5% IgG, pH 4.64, 37° C.): 0.9 Log10/4 hours
- PPV Reduction Factor (porcine parvovirus (PPV) [8]; IAA 45 μM (hydrated form), buffer, pH 4.96, 37° C.): 1.1 Log10/4 hours
- PPV Reduction Factor (porcine parvovirus (PPV) [8]; IAA 60 μM (hydrated form), 5% IgG, pH 4.64, 37° C.): 1.2 Log10/4 hours
- PPV Reduction Factor (porcine parvovirus (PPV) [8]; IAA 60 μM (hydrated form), buffer, pH 4.96, 37° C.): 1.1 Log10/4 hours
- PPV Reduction Factor (porcine parvovirus (PPV) [8]; IAA 90 μM (hydrated form), 5% IgG, pH 4.62, 37° C.): 1.4 Log10/4 hours
- PPV Reduction Factor (porcine parvovirus (PPV) [8]; IAA 90 μM (hydrated form), buffer, pH 4.95, 37° C.): 1.7 Log10/4 hours
- PPV inactivation rate (porcine parvovirus (PPV) [8]; IAA 180 μM): ~0.6 log10/hour
- PPV Reduction Factor (porcine parvovirus (PPV) [8]; IAA 180 μM (hydrated form), 5% IgG, pH 4.61, 37° C.): 2.5 Log10/4 hours
- PPV Reduction Factor (porcine parvovirus (PPV) [8]; IAA 180 μM (hydrated form), buffer, pH 4.93, 37° C.): 2.7 Log10/4 hours
- PPV Reduction Factor (porcine parvovirus (PPV) [8]; IAA 600 μM (hydrated form), 5% IgG, pH 4.56, 37° C.): ≧4.7 Log10/4 hours
- PPV Reduction Factor (porcine parvovirus (PPV) [8]; IAA 600 μM (hydrated form), buffer, pH 4.84, 37° C.): ≧4.7 Log10/4 hours
- concentration effective at inactivating pathogens, e.g., porcine parvovirus (as low as) (porcine parvovirus (PPV) [8]; IAA hydrate): 50 µM
